The text below walks through data of ChEMBL document CHEMBL5465560, “Selectivity Literature for EUbOPEN Chemogenomic Library” (2024).

The target of assay [1] is MAP/microtubule affinity-regulating kinase 3 (Homo sapiens) (UniProt P27448). Put plainly: Selectivity interaction (Kinase panel (Z-LYTE Assay)) EUB0001632a MARK3. The note with it: at 10 µM.
The target in assay [2] is Serine/threonine-protein kinase pim-2 (Homo sapiens, UniProt Q9P1W9). The experiment in a line: Selectivity interaction (KinomeScan (DiscoverX)) EUB0000595a PIM2. Particulars: at 10 µM.
The target in assay [3] is Ribosomal protein S6 kinase alpha-3 (Homo sapiens, UniProt P51812). The experiment in a line: Selectivity interaction (ActivX KiNativ screen (ex vivo kinase selectivity in human PBMCs)) EUB0001619a RPS6KA3. It is filed as cell-based. The note with it: PBMC, at 1 µM.
Assay [4] has as its target Ribosomal protein S6 kinase alpha-2 (Homo sapiens) (UniProt Q15349). The experiment in a line: Selectivity interaction (ActivX KiNativ screen (ex vivo kinase selectivity in human PBMCs)) EUB0001619a RPS6KA2. It is filed as cell-based. Particulars: PBMC, at 1 µM.
For assay [5], the target named is T1, Membrane-associated tyrosine- and threonine-specific cdc2-inhibitory kinase (Homo sapiens) (UniProt Q99640).
T1 sequence (whole entry): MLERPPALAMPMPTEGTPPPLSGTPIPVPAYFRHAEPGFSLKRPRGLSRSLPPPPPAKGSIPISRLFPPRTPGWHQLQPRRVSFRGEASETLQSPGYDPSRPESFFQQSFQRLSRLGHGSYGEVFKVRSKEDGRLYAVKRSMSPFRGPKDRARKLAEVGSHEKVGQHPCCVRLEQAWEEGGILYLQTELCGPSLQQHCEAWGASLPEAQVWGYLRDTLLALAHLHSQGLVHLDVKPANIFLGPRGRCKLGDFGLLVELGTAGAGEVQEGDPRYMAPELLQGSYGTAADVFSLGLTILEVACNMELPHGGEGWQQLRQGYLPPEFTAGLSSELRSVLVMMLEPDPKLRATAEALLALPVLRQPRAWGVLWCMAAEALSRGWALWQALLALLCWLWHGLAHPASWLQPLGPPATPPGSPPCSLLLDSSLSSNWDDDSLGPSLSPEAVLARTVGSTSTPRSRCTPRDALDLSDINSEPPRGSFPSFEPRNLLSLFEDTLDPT
Put plainly: Selectivity interaction (KinomeScan (DiscoverX)) EUB0000695a PKMYT1. The note with it: at 100 nM.

Assay [6] has as its target T2, Aurora kinase A (Homo sapiens) (UniProt O14965).
T2 sequence (whole entry): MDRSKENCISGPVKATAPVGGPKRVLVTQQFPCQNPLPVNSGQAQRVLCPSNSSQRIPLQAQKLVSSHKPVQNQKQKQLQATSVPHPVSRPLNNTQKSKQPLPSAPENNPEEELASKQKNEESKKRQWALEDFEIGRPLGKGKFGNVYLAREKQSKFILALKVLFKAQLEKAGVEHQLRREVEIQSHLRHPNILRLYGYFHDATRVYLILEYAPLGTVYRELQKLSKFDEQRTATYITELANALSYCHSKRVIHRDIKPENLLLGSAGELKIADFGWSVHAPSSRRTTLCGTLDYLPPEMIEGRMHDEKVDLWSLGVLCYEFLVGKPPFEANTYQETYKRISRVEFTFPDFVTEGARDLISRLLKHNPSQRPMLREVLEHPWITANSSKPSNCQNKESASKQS
Put plainly: Selectivity interaction (KinomeScan (DiscoverX)) EUB0000607a STK6. The note with it: at 10 µM.

In assay [7] the target is T3, Dual specificity tyrosine-phosphorylation-regulated kinase 4 (Homo sapiens) (UniProt Q9NR20).
T3 sequence (whole entry): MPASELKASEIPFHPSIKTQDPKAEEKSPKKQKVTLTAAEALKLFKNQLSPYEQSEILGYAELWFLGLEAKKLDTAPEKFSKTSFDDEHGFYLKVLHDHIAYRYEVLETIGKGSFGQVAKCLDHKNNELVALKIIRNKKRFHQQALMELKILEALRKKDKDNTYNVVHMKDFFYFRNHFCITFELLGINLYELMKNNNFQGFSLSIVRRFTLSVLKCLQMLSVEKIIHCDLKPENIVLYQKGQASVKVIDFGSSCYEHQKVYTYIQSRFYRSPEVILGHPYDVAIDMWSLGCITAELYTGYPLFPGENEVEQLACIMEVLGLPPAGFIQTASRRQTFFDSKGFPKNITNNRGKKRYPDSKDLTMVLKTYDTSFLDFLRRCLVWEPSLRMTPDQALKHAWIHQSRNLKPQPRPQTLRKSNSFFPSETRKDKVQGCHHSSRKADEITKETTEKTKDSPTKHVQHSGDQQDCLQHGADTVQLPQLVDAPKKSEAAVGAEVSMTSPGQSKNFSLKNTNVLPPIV
Put plainly: Selectivity interaction (Kinase panel (Invitrogen)) EUB0000639a DYRK4. The note with it: at 200 nM.

The target in a further assay is SRSF protein kinase 1 (Homo sapiens, UniProt Q96SB4). The experiment in a line: Selectivity interaction (ActivX KiNativ screen (kinase selectivity in THP-1 cell lysates)) EUB0000639a SRPK1. In kind it is subcellular. Particulars: lysate, at 0.04 µM.
In assay [8] the target is T4, Serine/threonine-protein kinase 17B (Homo sapiens) (UniProt O94768).
T4 sequence (whole entry): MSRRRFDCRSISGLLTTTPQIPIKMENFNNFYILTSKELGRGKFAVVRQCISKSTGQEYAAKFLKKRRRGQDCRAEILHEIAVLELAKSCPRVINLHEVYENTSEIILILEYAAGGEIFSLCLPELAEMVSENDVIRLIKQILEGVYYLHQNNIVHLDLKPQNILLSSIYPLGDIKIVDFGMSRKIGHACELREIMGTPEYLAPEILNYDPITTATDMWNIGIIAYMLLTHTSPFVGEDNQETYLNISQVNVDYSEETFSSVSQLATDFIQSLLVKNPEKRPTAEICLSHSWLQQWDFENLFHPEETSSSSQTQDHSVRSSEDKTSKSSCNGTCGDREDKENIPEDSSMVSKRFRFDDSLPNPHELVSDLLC
The experiment in a line: Selectivity interaction (Kinase panel (DSF assay)) EUB0001559a STK17B.

Assay [9] addresses Epithelial discoidin domain-containing receptor 1 (Homo sapiens) (UniProt Q08345). Put plainly: Selectivity interaction (KinomeScan (DiscoverX)) EUB0000045b DDR1.
Assay [10] addresses Tau-tubulin kinase 2 (Homo sapiens) (UniProt Q6IQ55). Put plainly: Selectivity interaction (ProQinase) EUB0000171b TTBK2.
For assay [11], the target named is Mitogen-activated protein kinase 10 (Homo sapiens, UniProt P53779). The experiment in a line: Selectivity interaction (KinomeScan (DiscoverX)) EUB0001049a MAPK10. The note with it: at 1 µM.
The target of assay [12] is TGF-beta receptor type-2 (Homo sapiens) (UniProt P37173). The experiment in a line: Selectivity interaction (KinomeScan (DiscoverX)) EUB0000655a TGFBR2. The note with it: at 10 µM.
Assay [13] has as its target Rho-associated protein kinase 2 (Homo sapiens, UniProt O75116). Put plainly: Selectivity interaction (KinomeScan (DiscoverX)) EUB0000618a ROCK2. Particulars: at 10 µM.
For assay [14], the target named is Serine/threonine-protein kinase PAK 3 (Homo sapiens) (UniProt O75914). Put plainly: Selectivity interaction (KinomeScan (DiscoverX)) EUB0001079a PAK3. Particulars: at 1 µM.
Serine/threonine-protein kinase PAK 3 (Homo sapiens), sequence (O75914 whole entry, looked up): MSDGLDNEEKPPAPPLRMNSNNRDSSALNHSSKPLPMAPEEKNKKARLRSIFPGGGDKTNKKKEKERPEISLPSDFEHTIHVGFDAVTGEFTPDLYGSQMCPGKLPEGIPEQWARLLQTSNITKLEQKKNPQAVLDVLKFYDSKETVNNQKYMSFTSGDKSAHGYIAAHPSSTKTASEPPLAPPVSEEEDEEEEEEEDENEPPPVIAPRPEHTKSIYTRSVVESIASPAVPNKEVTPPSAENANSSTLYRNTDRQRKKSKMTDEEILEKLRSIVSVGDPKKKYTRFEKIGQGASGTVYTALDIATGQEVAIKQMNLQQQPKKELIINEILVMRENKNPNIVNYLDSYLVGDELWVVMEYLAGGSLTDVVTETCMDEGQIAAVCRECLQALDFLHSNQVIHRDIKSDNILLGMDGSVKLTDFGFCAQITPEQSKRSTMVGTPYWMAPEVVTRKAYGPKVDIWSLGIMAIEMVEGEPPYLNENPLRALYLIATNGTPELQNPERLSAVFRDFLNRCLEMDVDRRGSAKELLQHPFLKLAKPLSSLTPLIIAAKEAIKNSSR

Epithelial discoidin domain-containing receptor 1 (Homo sapiens), sequence (Q08345 whole entry, the tested form may be a part): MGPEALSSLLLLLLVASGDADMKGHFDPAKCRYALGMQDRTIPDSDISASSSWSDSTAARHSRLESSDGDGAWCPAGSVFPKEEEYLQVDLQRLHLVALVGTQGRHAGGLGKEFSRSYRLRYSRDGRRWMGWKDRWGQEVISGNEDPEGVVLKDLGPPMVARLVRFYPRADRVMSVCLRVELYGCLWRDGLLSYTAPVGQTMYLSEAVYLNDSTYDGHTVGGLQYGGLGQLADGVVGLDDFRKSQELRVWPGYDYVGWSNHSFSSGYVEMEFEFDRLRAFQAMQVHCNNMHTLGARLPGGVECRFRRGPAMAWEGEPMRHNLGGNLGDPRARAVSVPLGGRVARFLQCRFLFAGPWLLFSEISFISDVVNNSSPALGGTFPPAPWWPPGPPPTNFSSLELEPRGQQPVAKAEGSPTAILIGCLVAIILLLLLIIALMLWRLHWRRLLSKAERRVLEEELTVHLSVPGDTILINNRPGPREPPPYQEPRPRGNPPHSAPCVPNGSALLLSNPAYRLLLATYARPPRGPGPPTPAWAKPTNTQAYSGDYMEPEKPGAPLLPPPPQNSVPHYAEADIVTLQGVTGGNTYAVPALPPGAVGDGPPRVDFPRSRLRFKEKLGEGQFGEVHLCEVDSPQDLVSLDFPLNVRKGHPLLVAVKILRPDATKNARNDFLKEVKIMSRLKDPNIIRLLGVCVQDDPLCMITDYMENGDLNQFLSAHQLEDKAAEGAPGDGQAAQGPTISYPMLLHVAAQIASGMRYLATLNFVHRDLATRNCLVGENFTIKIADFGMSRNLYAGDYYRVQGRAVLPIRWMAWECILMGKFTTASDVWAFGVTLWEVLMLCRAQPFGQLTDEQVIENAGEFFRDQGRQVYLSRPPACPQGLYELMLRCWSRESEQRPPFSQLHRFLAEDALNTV
Tau-tubulin kinase 2 (Homo sapiens), sequence (Q6IQ55 whole entry): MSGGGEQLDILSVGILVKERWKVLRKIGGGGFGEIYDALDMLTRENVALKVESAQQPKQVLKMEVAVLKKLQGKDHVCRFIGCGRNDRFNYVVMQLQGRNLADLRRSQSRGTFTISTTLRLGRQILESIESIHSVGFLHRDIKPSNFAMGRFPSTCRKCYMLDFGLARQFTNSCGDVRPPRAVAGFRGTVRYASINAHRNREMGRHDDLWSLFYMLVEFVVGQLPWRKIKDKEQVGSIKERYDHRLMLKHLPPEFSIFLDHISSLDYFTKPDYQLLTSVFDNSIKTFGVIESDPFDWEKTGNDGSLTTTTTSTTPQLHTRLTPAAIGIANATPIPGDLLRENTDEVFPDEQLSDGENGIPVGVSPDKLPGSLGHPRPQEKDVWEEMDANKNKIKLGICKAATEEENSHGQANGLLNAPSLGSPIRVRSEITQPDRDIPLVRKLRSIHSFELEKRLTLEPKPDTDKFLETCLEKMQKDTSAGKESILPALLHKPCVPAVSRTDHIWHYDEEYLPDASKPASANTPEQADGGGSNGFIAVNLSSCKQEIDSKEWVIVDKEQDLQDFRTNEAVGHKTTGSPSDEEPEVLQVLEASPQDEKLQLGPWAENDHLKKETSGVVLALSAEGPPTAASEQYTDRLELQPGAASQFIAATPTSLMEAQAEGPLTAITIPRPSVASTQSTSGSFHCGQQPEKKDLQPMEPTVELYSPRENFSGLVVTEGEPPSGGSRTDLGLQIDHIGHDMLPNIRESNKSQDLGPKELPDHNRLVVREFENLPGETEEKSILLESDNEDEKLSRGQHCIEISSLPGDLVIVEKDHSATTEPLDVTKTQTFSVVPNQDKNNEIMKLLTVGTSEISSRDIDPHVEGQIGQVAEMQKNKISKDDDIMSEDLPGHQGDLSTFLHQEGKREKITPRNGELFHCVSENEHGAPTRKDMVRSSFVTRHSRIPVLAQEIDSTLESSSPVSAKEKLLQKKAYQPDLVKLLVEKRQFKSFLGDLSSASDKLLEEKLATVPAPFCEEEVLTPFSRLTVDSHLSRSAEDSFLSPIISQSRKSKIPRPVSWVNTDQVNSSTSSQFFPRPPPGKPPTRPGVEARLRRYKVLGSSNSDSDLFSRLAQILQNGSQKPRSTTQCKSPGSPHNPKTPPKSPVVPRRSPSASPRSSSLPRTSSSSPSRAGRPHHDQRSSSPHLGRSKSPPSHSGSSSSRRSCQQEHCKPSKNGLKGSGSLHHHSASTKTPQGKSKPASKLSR
MAP/microtubule affinity-regulating kinase 3 (Homo sapiens), sequence (P27448 whole entry, looked up): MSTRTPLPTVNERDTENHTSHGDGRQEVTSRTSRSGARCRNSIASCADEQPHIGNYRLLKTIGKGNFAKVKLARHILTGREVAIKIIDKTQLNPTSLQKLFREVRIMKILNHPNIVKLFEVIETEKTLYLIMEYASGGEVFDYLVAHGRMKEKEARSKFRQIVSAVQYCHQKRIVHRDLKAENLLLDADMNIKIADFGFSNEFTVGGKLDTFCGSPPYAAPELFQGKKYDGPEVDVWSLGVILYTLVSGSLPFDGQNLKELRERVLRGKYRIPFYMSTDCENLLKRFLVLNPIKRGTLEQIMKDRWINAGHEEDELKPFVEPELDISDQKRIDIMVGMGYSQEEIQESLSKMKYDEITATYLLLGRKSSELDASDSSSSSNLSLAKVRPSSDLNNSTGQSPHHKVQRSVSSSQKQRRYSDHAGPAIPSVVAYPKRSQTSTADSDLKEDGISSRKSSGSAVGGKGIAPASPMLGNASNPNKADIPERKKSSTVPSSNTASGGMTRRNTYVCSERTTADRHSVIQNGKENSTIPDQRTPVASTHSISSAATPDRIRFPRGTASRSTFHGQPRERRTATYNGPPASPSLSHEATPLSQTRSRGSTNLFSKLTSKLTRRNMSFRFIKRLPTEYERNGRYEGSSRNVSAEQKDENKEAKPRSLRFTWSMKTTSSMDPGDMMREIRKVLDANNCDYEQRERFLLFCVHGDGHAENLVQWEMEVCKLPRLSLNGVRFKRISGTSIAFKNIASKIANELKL
Mitogen-activated protein kinase 10, sequence (P53779 whole entry): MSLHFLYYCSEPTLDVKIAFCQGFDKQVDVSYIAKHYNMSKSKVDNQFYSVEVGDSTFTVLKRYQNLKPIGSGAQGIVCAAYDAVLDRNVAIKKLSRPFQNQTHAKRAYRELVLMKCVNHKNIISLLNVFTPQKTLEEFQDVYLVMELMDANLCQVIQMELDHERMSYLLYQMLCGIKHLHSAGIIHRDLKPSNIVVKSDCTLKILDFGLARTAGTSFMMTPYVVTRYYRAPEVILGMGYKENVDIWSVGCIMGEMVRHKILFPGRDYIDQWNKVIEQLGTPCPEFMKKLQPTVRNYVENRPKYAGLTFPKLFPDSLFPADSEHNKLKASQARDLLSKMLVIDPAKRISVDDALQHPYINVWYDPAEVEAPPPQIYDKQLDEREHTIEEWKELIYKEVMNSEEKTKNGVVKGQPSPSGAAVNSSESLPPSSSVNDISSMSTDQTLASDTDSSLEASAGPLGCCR
Ribosomal protein S6 kinase alpha-3, sequence (P51812 whole entry): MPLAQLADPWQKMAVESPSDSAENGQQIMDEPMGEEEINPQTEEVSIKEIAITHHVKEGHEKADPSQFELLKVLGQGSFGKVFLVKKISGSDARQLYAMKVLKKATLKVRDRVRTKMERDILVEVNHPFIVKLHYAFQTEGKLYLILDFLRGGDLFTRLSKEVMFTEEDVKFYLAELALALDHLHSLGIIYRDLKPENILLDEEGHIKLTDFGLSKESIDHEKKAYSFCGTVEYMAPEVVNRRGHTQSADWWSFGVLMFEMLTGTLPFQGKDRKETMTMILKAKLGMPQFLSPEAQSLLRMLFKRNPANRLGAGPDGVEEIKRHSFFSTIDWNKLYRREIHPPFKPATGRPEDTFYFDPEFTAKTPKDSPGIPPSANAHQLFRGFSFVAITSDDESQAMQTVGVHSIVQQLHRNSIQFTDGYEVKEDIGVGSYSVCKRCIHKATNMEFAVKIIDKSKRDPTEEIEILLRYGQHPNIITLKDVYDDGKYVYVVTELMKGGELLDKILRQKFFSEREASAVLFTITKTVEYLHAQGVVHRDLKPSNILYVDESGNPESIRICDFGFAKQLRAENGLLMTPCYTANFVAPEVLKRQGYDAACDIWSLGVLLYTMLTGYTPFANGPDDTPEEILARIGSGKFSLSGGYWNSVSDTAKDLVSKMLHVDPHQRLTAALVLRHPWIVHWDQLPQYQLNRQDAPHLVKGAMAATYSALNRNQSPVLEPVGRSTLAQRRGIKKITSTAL
Serine/threonine-protein kinase pim-2, sequence (Q9P1W9 whole entry, looked up): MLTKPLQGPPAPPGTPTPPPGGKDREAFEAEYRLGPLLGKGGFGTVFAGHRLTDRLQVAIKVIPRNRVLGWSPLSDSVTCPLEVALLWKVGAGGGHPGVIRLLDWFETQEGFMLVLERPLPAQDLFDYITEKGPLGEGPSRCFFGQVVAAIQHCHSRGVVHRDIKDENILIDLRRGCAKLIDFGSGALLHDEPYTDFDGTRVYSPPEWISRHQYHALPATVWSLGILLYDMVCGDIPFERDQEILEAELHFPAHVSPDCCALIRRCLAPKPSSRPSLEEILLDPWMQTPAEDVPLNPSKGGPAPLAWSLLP

`Cn1cc(-n2cnc3c(NCc4nc5cc(Cl)c(Cl)cc5[nH]4)nc(N4CCOCC4)nc32)cn1`: in assay [1], the % of control was determined as 18.1%.

`COCC(=O)NC/C=C/c1ccc2ncnc(Nc3ccc(Oc4ccc(C)nc4)c(C)c3)c2c1` [CP-724714] had a % of control in assay [2] of 100%.

Take `N#Cc1cccc(-c2c[nH]c3ncnc(N4CCOCC4)c23)c1`: the % of inhibition was determined as 6% in [3] and 13% in [4].

`Cc1cc(F)c(C(=O)Nc2cccc(-c3nncn3C(C)C)n2)cc1-n1cnc(C2CC2)c1`: the % of control in [5] was determined as 98%.

Consider `CNC(=O)Nc1ccc(-c2nc(N3CC4CCC(C3)O4)c3cnn(C4CCC5(CC4)OCCO5)c3n2)cc1`, for which the % of control in assay [6] worked out at 100%.

`CC[C@@H]1[C@H](F)C(=O)N[C@@H]1COc1nccc2cc(C(N)=O)c(OC)cc12` [ZIMLOVISERTIB]: the % of inhibition in assay [7] was 5.52%; on SRSF protein kinase 1 it was 6%.

In turn, `CN(C(=O)c1cnn2cccnc12)c1cc2c(cc1N1CCOCC1)C(=O)N(C[C@@H](F)C(C)(C)O)C2` showed a dTM in assay [8] of 1 K.

`C=CC(=O)Nc1cc(-n2c(=O)ccc3cnc4ccc(-c5ccc(NS(C)(=O)=O)cc5)cc4c32)ccc1C`: the % of control in [9] (at 1 µM) came out at 100%; in [9] (at 10 µM), 75%.

For the compound `C=CC(=O)Nc1cccc(C(=O)Nc2ccc(Nc3cc(-c4[nH]c(SC)nc4C)ccn3)cc2)c1`, the values for the % of control in assay [10] (at 1 µM) and in assay [10] (at 5 µM) were 94% and 93%, respectively.

As for `COc1cc(Nc2nc(C)cc(-c3cnn4nc(OC)ccc34)n2)cc(C(F)(F)F)c1`, the % of control in [11] was 77%.

`CN(C)CCOc1ccc(-c2nc(-c3ccncc3)c(-c3ccc4c(c3)CC/C4=N\O)[nH]2)cc1` had a % of control in assay [12] of 44%.

`O[C@H]1CC[C@H](Nc2ncc3nc(Nc4c(F)cc(F)cc4F)n([C@H]4CCOC4)c3n2)CC1` returned a % of control in assay [13] of 100%.

`Nc1cnc(N2CCc3cc(S(=O)(=O)Nc4c(F)cc(Cl)cc4F)cc(N4CCCC4=O)c32)nc1` [TP-020n]: the % of control in assay [14] amounted to 100%.
